Values quoted from earlier work as cited in patent publication US8617906B2, “Identification and screening of triptolide target molecules” (priority 2004, dated 2013).

Legend:
Thioredoxin reductase = Thioredoxin reductase (Homo sapiens, UniProt Q16881); conditions: cited from earlier work
[1] = cited from earlier work
[2] = 0.5-1 μg/kg; cited from earlier work
dopaminergic neurons = conditions: cited from earlier work
[3] = in vivo; cited from earlier work
[4] = tested on: human T cell lymphoma (Jurkat) cells; conditions: cited from earlier work
IL-2 = conditions: cited from earlier work
AML cells = conditions: cited from earlier work
Akt/PKB = conditions: cited from earlier work

Sequence of Thioredoxin reductase (Q16881 151-649 limits assumed): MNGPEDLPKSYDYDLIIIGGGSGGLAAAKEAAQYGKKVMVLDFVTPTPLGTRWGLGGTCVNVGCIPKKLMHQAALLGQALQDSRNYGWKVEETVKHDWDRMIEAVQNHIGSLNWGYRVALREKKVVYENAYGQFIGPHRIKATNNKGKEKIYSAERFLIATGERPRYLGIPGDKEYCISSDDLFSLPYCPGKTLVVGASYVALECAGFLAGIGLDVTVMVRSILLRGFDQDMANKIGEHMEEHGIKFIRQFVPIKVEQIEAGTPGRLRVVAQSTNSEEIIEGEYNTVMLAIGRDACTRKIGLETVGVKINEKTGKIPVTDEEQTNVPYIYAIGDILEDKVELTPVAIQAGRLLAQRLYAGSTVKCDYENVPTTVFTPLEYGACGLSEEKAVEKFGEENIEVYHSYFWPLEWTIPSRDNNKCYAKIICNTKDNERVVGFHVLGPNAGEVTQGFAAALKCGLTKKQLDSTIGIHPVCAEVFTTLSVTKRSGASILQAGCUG

## CC(=O)OC[C@H]1O[C@@H]([S-])[C@H](OC(C)=O)[C@@H](OC(C)=O)[C@@H]1OC(C)=O.CCP(CC)CC.[Au+] [auranofin]
Thioredoxin reductase
  thioredoxin reductase as drug target: target of auranofin

## CC(C)[C@]12O[C@H]1[C@@H]1O[C@]13[C@]1(O[C@H]1C[C@H]1C4=C(CC[C@@]13C)C(=O)OC4)[C@@H]2OC(=O)CCC(=O)[O-].[Na+] [PG490-88]
[1]
  conversion in vivo to triptolide: converting in vivo to triptolide

## CC(C)[C@]1(O)[C@H](Cl)[C@@H]2O[C@]23[C@]2(O[C@H]2C[C@H]2C4=C(CC[C@@]23C)C(=O)OC4)[C@@H]1O [Tripchlorolide]
[2]
  TNF-α and IL-2 levels in the brain: attenuates the elevation of TNF-α and IL-2 levels in the brain
  dopamine depletion: attenuates dopamine depletion
  recovery of rats undergoing neurosurgery: improves recovery of rats undergoing neurosurgery
  sparing of SN neurons: significant sparing of SN neurons
  survival of dopaminergic neurons: increases the survival of dopaminergic neurons
Dopaminergic neurons
  dopaminergic neuron axonal elongation: promotes dopaminergic neuron axonal elongation
  protection from neurotoxic lesion induced by 1-methyl-4-phenylpyridinium ion: protects dopaminergic neurons from a neurotoxic lesion
Dopaminergic neurons; in situ hybridization
  brain-derived neurotrophic factor mRNA expression: stimulates brain-derived neurotrophic factor mRNA expression
[1]
  conversion in vivo to triptolide: prodrug of triptolide

## 14-succinimide ester of triptolide
[3]
  bleomycin-induced PF: block bleomycin-induced PF

## CC(C)[C@]12O[C@H]1[C@@H]1O[C@]13[C@]1(O[C@H]1C[C@H]1C4=C(CC[C@@]13C)C(=O)OC4)[C@H]2F [PG763, 14-deoxy-14α-fluoro triptolide]
[4]
  cytotoxicity: cytotoxicity in human T cell lymphoma (Jurkat) cells
IL-2
  inhibition of IL-2: inhibition of IL-2

## Cc1cc(C)c(/C=C2\C(=O)Nc3ccccc32)[nH]1 [SU-5416]
AML cells
  VEGF-induced colony formation / clonogenic response: abolished
Akt/PKB
  VEGF-stimulated phosphorylation of Akt/PKB: abolished
